In the OligoGym collection:
HELM strings list units from the 5' end as sugar, base in round brackets, then linkage (d deoxyribose, r ribose, m 2'-O-methyl, p phosphodiester). Strings are as the collection lists them, not checked against the first reports. ss, as = sense and antisense strand; [fl2r] = 2'-fluoro

Conditions: siRNA
Also: test system not given here.

Substance	target mRNA knockdown [%]
RNA1{r(A)p.r(G)p.r(A)p.r(G)p.r(A)p.r(A)p.r(G)p.r(G)p.r(G)p.[fl2r](C)p.r(G)p.r(U)p.r(C)p.r(U)p.r(C)p.[fl2r](U)p.r(A)p.[fl2r](C)p.r(A)p.r(T)p.r(T)}|RNA2{[fl2r](U)p.r(G)p.[fl2r](U)p.r(A)p.r(G)p.r(A)p.r(G)p.r(A)p.r(C)p.r(G)p.r(C)p.r(C)p.r(C)p.r(U)p.r(U)p.r(C)p.r(U)p.r(C)p.r(U)p.r(T)p.r(T)}$$$RNA1{StrandType:ss}|RNA2{StrandType:as}$	71
RNA1{r(A)p.r(G)p.r(A)p.r(G)p.r(A)p.r(A)p.r(G)p.r(G)p.r(G)p.r(C)p.r(G)p.r(U)p.r(C)p.r(U)p.r(C)p.r(U)p.[fl2r](A)p.r(C)p.r(A)p.r(T)p.r(T)}|RNA2{r(U)p.r(G)p.[fl2r](U)p.r(A)p.r(G)p.r(A)p.r(G)p.r(A)p.r(C)p.r(G)p.r(C)p.r(C)p.r(C)p.r(U)p.r(U)p.r(C)p.r(U)p.r(C)p.r(U)p.r(T)p.r(T)}$$$RNA1{StrandType:ss}|RNA2{StrandType:as}$	69
RNA1{r(A)p.r(G)p.r(A)p.r(G)p.r(A)p.r(G)p.r(G)p.[fl2r](U)p.r(G)p.r(G)p.r(A)p.r(G)p.r(G)p.[fl2r](U)p.r(A)p.r(U)p.r(C)p.[fl2r](U)p.r(C)p.r(T)p.r(T)}|RNA2{r(G)p.r(A)p.r(G)p.r(A)p.[fl2r](U)p.r(A)p.r(C)p.r(C)p.r(U)p.r(C)p.[fl2r](C)p.[fl2r](A)p.r(C)p.r(C)p.r(U)p.r(C)p.r(U)p.r(C)p.r(U)p.r(T)p.r(T)}$$$RNA1{StrandType:ss}|RNA2{StrandType:as}$	85
RNA1{r(A)p.r(G)p.r(A)p.r(G)p.r(A)p.r(G)p.r(G)p.[fl2r](U)p.r(G)p.r(G)p.r(A)p.r(G)p.r(G)p.r(U)p.r(A)p.r(U)p.r(C)p.r(U)p.r(C)p.r(T)p.r(T)}|RNA2{r(G)p.r(A)p.r(G)p.r(A)p.[fl2r](U)p.r(A)p.r(C)p.r(C)p.r(U)p.r(C)p.r(C)p.r(A)p.r(C)p.r(C)p.r(U)p.r(C)p.r(U)p.r(C)p.r(U)p.r(T)p.r(T)}$$$RNA1{StrandType:ss}|RNA2{StrandType:as}$	88
RNA1{r(A)p.r(G)p.r(A)p.r(G)p.r(A)p.r(G)p.r(G)p.r(U)p.r(G)p.r(G)p.r(A)p.r(G)p.r(G)p.m(U)p.r(A)p.r(U)p.r(C)p.r(U)p.r(C)p.r(T)p.r(T)}|RNA2{r(G)p.r(A)p.r(G)p.r(A)p.m(U)p.r(A)p.r(C)p.r(C)p.r(U)p.r(C)p.r(C)p.r(A)p.r(C)p.r(C)p.r(U)p.r(C)p.r(U)p.r(C)p.r(U)p.r(T)p.r(T)}$$$RNA1{StrandType:ss}|RNA2{StrandType:as}$	90
RNA1{r(A)p.r(G)p.r(A)p.r(G)p.r(G)p.r(A)p.r(C)p.r(C)p.m(U)p.r(A)p.r(G)p.r(A)p.r(A)p.r(G)p.r(G)p.r(C)p.r(G)p.r(G)p.r(C)p.r(T)p.r(T)}|RNA2{r(G)p.r(C)p.r(C)p.r(G)p.r(C)p.r(C)p.m(U)p.m(U)p.r(C)p.m(U)p.r(A)p.r(G)p.r(G)p.m(U)p.r(C)p.r(C)p.m(U)p.r(C)p.m(U)p.r(T)p.r(T)}$$$RNA1{StrandType:ss}|RNA2{StrandType:as}$	72
RNA1{r(A)p.r(G)p.r(A)p.r(G)p.r(G)p.r(A)p.r(C)p.r(C)p.m(U)p.r(A)p.r(G)p.r(A)p.r(A)p.r(G)p.r(G)p.r(C)p.r(G)p.r(G)p.r(C)p.r(T)p.r(T)}|RNA2{r(G)p.r(C)p.r(C)p.r(G)p.r(C)p.r(C)p.r(U)p.r(U)p.r(C)p.m(U)p.r(A)p.r(G)p.r(G)p.r(U)p.r(C)p.r(C)p.r(U)p.r(C)p.r(U)p.r(T)p.r(T)}$$$RNA1{StrandType:ss}|RNA2{StrandType:as}$	89
RNA1{r(A)p.r(G)p.r(A)p.r(G)p.r(G)p.r(A)p.r(C)p.r(C)p.r(U)p.m(A)p.r(G)p.r(A)p.r(A)p.r(G)p.r(G)p.r(C)p.r(G)p.r(G)p.r(C)p.r(T)p.r(T)}|RNA2{r(G)p.r(C)p.r(C)p.r(G)p.r(C)p.r(C)p.r(U)p.r(U)p.r(C)p.r(U)p.r(A)p.r(G)p.r(G)p.r(U)p.r(C)p.r(C)p.r(U)p.r(C)p.r(U)p.r(T)p.r(T)}$$$RNA1{StrandType:ss}|RNA2{StrandType:as}$	92
RNA1{r(A)p.r(G)p.r(A)p.r(G)p.r(U)p.m(U)p.r(G)p.r(G)p.r(G)p.r(A)p.r(U)p.m(U)p.r(A)p.r(G)p.r(G)p.r(G)p.r(C)p.r(U)p.r(U)p.r(T)p.r(T)}|RNA2{r(A)p.r(A)p.r(G)p.r(C)p.r(C)p.r(C)p.m(U)p.r(A)p.r(A)p.r(U)p.r(C)p.r(C)p.m(C)p.r(A)p.r(A)p.r(C)p.r(U)p.r(C)p.r(U)p.r(T)p.r(T)}$$$RNA1{StrandType:ss}|RNA2{StrandType:as}$	68
RNA1{r(A)p.r(G)p.r(A)p.r(G)p.r(U)p.r(U)p.r(G)p.r(G)p.r(G)p.r(A)p.r(U)p.r(U)p.r(A)p.r(G)p.r(G)p.r(G)p.r(C)p.r(U)p.r(U)p.r(T)p.r(T)}|RNA2{m(A)p.r(A)p.m(G)p.r(C)p.m(C)p.r(C)p.m(U)p.r(A)p.m(A)p.r(U)p.m(C)p.r(C)p.m(C)p.r(A)p.m(A)p.r(C)p.m(U)p.r(C)p.m(U)p.r(T)p.r(T)}$$$RNA1{StrandType:ss}|RNA2{StrandType:as}$	45
RNA1{r(A)p.r(G)p.r(A)p.r(G)p.r(U)p.r(U)p.r(G)p.r(G)p.r(G)p.r(A)p.r(U)p.r(U)p.r(A)p.r(G)p.r(G)p.r(G)p.r(C)p.r(U)p.r(U)p.r(T)p.r(T)}|RNA2{r(A)p.r(A)p.r(G)p.r(C)p.r(C)p.r(C)p.m(U)p.r(A)p.r(A)p.r(U)p.r(C)p.r(C)p.r(C)p.r(A)p.r(A)p.r(C)p.r(U)p.r(C)p.r(U)p.r(T)p.r(T)}$$$RNA1{StrandType:ss}|RNA2{StrandType:as}$	69
RNA1{r(A)p.r(G)p.r(A)p.r(U)p.r(G)p.r(U)p.r(U)p.r(C)p.r(U)p.r(C)p.r(G)p.r(U)p.r(A)p.r(A)p.r(G)p.r(G)p.r(A)p.r(C)p.r(G)p.r(T)p.r(T)}|RNA2{r(C)p.r(G)p.r(U)p.r(C)p.r(C)p.r(U)p.m(U)p.r(A)p.r(C)p.r(G)p.r(A)p.r(G)p.r(A)p.r(A)p.r(C)p.r(A)p.r(U)p.r(C)p.r(U)p.r(T)p.r(T)}$$$RNA1{StrandType:ss}|RNA2{StrandType:as}$	69
RNA1{r(A)p.r(G)p.r(C)p.m(C)p.r(A)p.m(C)p.r(A)p.r(U)p.r(U)p.r(U)p.r(C)p.m(U)p.r(A)p.r(G)p.r(G)p.r(A)p.r(G)p.r(A)p.r(U)p.r(T)p.r(T)}|RNA2{r(A)p.r(U)p.r(C)p.r(U)p.r(C)p.r(C)p.m(U)p.r(A)p.m(G)p.r(A)p.r(A)p.r(A)p.r(U)p.r(G)p.m(U)p.r(G)p.r(G)p.r(C)p.r(U)p.r(T)p.r(T)}$$$RNA1{StrandType:ss}|RNA2{StrandType:as}$	26
RNA1{r(A)p.r(G)p.r(C)p.m(C)p.r(A)p.r(C)p.r(A)p.r(U)p.r(U)p.r(U)p.r(C)p.r(U)p.m(A)p.r(G)p.r(G)p.r(A)p.r(G)p.r(A)p.r(U)p.r(T)p.r(T)}|RNA2{r(A)p.r(U)p.r(C)p.r(U)p.r(C)p.r(C)p.r(U)p.r(A)p.r(G)p.r(A)p.r(A)p.r(A)p.m(U)p.r(G)p.r(U)p.r(G)p.r(G)p.r(C)p.r(U)p.r(T)p.r(T)}$$$RNA1{StrandType:ss}|RNA2{StrandType:as}$	29
RNA1{r(A)p.r(G)p.r(C)p.r(C)p.[fl2r](C)p.r(A)p.r(G)p.r(A)p.[fl2r](U)p.r(A)p.r(G)p.r(C)p.r(U)p.r(C)p.r(U)p.r(U)p.[fl2r](C)p.r(A)p.r(G)p.r(T)p.r(T)}|RNA2{r(C)p.[fl2r](U)p.r(G)p.r(A)p.r(A)p.r(G)p.r(A)p.r(G)p.r(C)p.[fl2r](U)p.r(A)p.r(U)p.r(C)p.[fl2r](U)p.r(G)p.r(G)p.r(G)p.r(C)p.r(U)p.r(T)p.r(T)}$$$RNA1{StrandType:ss}|RNA2{StrandType:as}$	61
RNA1{r(A)p.r(G)p.r(C)p.r(C)p.r(C)p.r(A)p.r(G)p.r(A)p.[fl2r](U)p.r(A)p.r(G)p.r(C)p.r(U)p.r(C)p.r(U)p.r(U)p.r(C)p.r(A)p.r(G)p.r(T)p.r(T)}|RNA2{r(C)p.r(U)p.r(G)p.r(A)p.r(A)p.r(G)p.r(A)p.r(G)p.r(C)p.[fl2r](U)p.r(A)p.r(U)p.r(C)p.r(U)p.r(G)p.r(G)p.r(G)p.r(C)p.r(U)p.r(T)p.r(T)}$$$RNA1{StrandType:ss}|RNA2{StrandType:as}$	69
RNA1{r(A)p.r(G)p.r(C)p.r(C)p.r(U)p.r(C)p.[fl2r](C)p.r(A)p.r(A)p.r(A)p.r(C)p.r(U)p.r(C)p.r(C)p.[fl2r](U)p.r(A)p.r(G)p.r(C)p.r(U)p.r(T)p.r(T)}|RNA2{r(A)p.r(G)p.r(C)p.r(U)p.r(A)p.r(G)p.r(G)p.r(A)p.r(G)p.r(U)p.r(U)p.r(U)p.r(G)p.r(G)p.r(A)p.r(G)p.r(G)p.r(C)p.r(U)p.r(T)p.r(T)}$$$RNA1{StrandType:ss}|RNA2{StrandType:as}$	32
RNA1{r(A)p.r(G)p.r(C)p.r(C)p.r(U)p.r(C)p.m(C)p.r(A)p.r(A)p.r(A)p.r(C)p.r(U)p.r(C)p.r(C)p.m(U)p.r(A)p.r(G)p.r(C)p.r(U)p.r(T)p.r(T)}|RNA2{r(A)p.r(G)p.r(C)p.m(U)p.r(A)p.r(G)p.r(G)p.r(A)p.r(G)p.r(U)p.r(U)p.m(U)p.r(G)p.r(G)p.r(A)p.r(G)p.r(G)p.r(C)p.r(U)p.r(T)p.r(T)}$$$RNA1{StrandType:ss}|RNA2{StrandType:as}$	65
RNA1{r(A)p.r(G)p.r(C)p.r(C)p.r(U)p.r(C)p.r(C)p.r(A)p.r(A)p.[fl2r](A)p.r(C)p.r(U)p.r(C)p.r(C)p.r(U)p.r(A)p.r(G)p.[fl2r](C)p.r(U)p.r(T)p.r(T)}|RNA2{r(A)p.r(G)p.r(C)p.[fl2r](U)p.r(A)p.r(G)p.r(G)p.r(A)p.r(G)p.r(U)p.r(U)p.r(U)p.r(G)p.r(G)p.r(A)p.r(G)p.r(G)p.r(C)p.r(U)p.r(T)p.r(T)}$$$RNA1{StrandType:ss}|RNA2{StrandType:as}$	69
RNA1{r(A)p.r(G)p.r(C)p.r(C)p.r(U)p.r(C)p.r(C)p.r(A)p.r(A)p.r(A)p.r(C)p.r(U)p.r(C)p.r(C)p.r(U)p.r(A)p.r(G)p.r(C)p.r(U)p.r(T)p.r(T)}|RNA2{r(A)p.r(G)p.r(C)p.m(U)p.r(A)p.r(G)p.r(G)p.r(A)p.r(G)p.r(U)p.r(U)p.m(U)p.r(G)p.r(G)p.r(A)p.r(G)p.r(G)p.r(C)p.r(U)p.r(T)p.r(T)}$$$RNA1{StrandType:ss}|RNA2{StrandType:as}$	70
